ED50, Ki and melting point data for seven compounds are collected here from article PMC3340383, “Synthesis and Evaluation of a Series of 2-Substituted-5-Thiopropylpiperazine (Piperidine)-1,3,4-Oxadiazoles Derivatives as Atypical Antipsychotics” (PLoS ONE, 2012).

Like-named read-outs stand apart in the source and are kept apart here. Where only a bound is given, the exact number is not on record here.

Series [1] concerns MK-801-induced hyperactivity in mice. Kind of series: MK-801-induced hyperactivity. To be noted: Mus musculus, po, read-out: MK-801-induced hyperactivity ED50 (B).
The subject of series [2] is apomorphine-induced climbing behavior in mice. Kind of series: Apomorphine-induced climbing. Format: in vivo. As to conditions: Mus musculus, po, read-out: Apomorphine-induced climbing ED50 (A). The protocol: . […] . Animals were then challenged at 30 minutes post-injection with 1.0 mg/kg of the apomorphine in 0.9% NaCl+0.1% ascorbic acid, placed in cylindrical wire cages (12 cm in diameter, 14 cm in height), and observed for climbing behavior at 10, 20 and 30 min post dose. The climbing behaviour was scored as follows: 3–4 paws on the cage floor = 0 score; 2 and 3 paws on the cage = 1 score; 4 paws on the cage = 2 score.

A short description of series [3]: in vivo. To be noted: Kun Ming (KM), mouse, po.
For series [4], the target named is T1, serotonin 5-HT2A receptor (Rattus norvegicus, UniProt P14842).
T1 construct: Rat cerebral cortex was homogenized in 20 volumes of ice-cold Tris-HCl buffer; from tissue; host or cells: rat brain (cerebral) cortex
In words: 5-HT2A binding assay ([3H]ketanserin, rat brain cortex). To be noted: read-out: Ki±SEM, 5HT2A. The protocol:
(§1) All the new compounds were dissolved in 5% DMSO. The following specific radioligands and tissue sources were used: (a) serotonin 5-HT1A receptor, [^3H]8-OH-DPAT, rat brain cortex; (b) serotonin 5-HT2A receptor, [^3H]ketanserin, rat brain cortex; (c) serotonin 5-HT2C receptor, [^3H]mesulergine, rat brain cortex; (d) dopamine D2 receptor, [^3H]spiperone, rat striatum; (e) dopamine D3 receptor, [^3H]spiperone, rat olfactory tubercle (f) histamine H1 receptor, [^3H] pyrilamine, guinea pig cerebellum.
(§2) Total binding was determined in the absence of no-specific binding and compounds. Specific binding was determined in the presence of compounds. Non-specific binding was determined as the difference between total and specific binding.
(§3) Percentage of inhibition (%) = (total binding − specific binding)×100%/(total binding − nonspecific binding).
(§4) Ki values were calculated based on the Cheng and Prussoff equation: Ki = IC50/(1+C/Kd) where C represents the concentration of the hot ligand used and Kd its receptor dissociation constant were calculated for each labeled ligand. Mean Ki values and SEM were reported for at least three independent experiments.
Rat cerebral cortex was homogenized in 20 volumes of ice-cold Tris-HCl buffer (50 mM, pH 7.7) using an ULTRA TURAX homogeniser, and centrifuged at 32000 g for 20 min. The resulting pellet was resuspended in the same quantity of the buffer centrifuged for 20 min. The final pellet was resuspended in 50 volumes of the Tris-HCl buffer.
Total binding each assay tube was added 900 µL of the tissue suspension, 50 µL of 0.6 nM [^3H]ketanserin (60.0 Ci/mmol, Perkin Elmer Life Sciences, Boston, MA, USA), 50 µL Tris-HCl buffer.
Non-specific binding each assay tube was added 900 µL of the tissue suspension, 50 µL of 0.6 nM [^3H]ketanserin, 50 µL of 10 µM methisergide.
Specific binding each assay tube was added 900 µL of the tissue suspension, 50 µL of 0.6 nM [^3H]ketanserin, […] of new compounds or reference drug.
(§5) The incubation was followed by a rapid vacuum filtration through Whatman GF/B glass filters, and the filtrates were washed twice with 5 mL cold buffer and transferred to scintillation vials. Scintillation fluid (3.0 mL) was added and the radioactivity bound was measured using a Beckman LS 6500 liquid scintillation counter.

The target in series [5] is T2, histamine H1 receptor (Cavia porcellus, UniProt P31389).
T2 construct: Guinea pig cerebellum was homogenized in 20 volumes of ice-cold 50 mM phosphate buffer; from tissue; host or cells: guinea pig cerebellum
Kind of series: Histamine H1 binding assay ([3H]pyrilamine, guinea pig cerebellum). As to conditions: read-out: Ki±SEM, H1. The protocol: as §1, §2, §3, §4, §5

Series [6] concerns the target T3, serotonin 5-HT1A receptor (Rattus norvegicus, UniProt P19327).
T3 construct: Rat cerebral cortex was homogenized in 20 volumes of ice-cold Tris-HCl buffer; from tissue; host or cells: rat brain (cerebral) cortex
T3 sequence (P19327 1-422): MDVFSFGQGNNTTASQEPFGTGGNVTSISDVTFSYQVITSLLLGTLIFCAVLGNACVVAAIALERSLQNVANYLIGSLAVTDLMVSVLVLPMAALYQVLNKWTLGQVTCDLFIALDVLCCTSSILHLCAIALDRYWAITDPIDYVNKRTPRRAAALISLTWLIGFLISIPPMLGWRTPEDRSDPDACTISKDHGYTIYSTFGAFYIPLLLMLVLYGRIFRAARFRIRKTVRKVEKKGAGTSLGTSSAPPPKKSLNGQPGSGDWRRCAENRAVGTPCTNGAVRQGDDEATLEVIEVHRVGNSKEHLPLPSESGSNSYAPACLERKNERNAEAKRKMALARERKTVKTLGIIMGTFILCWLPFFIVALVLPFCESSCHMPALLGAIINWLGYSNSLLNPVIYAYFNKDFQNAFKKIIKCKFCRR
In words: 5-HT1A binding assay ([3H]8-OH-DPAT, rat brain cortex). To be noted: read-out: Ki±SEM, 5HT1A. The protocol: as §1, §2, §3, §4
Rat cerebral cortex was homogenized in 20 volumes of ice-cold Tris-HCl buffer (50 mM, pH 7.7) using an ULTRA TURAX homogeniser, and was then centrifuged at 32000 g for 10 min. […] The final pellet was resuspended in Tris-HCl buffer containing 10 µM Pargyline, 4 mM CaCl2 and 0.1% ascorbic acid.
Total binding each assay tube was added 900 µL of the tissue suspension, 50 µL of 0.5 nM [^3H]8-OH-DPAT (187.4 Ci/mmol, Perkin Elmer Life Sciences, Boston, MA, USA), 50 µL Tris-HCl buffer containing 10 µM Pargyline, 4 mM CaCl2 and 0.1% ascorbic acid.
Non-specific binding each assay tube was added 900 µL of the tissue suspension, 50 µL of 0.5 nM [^3H]8-OH-DPAT, 50 µL of 10 µM serotonin.
Specific binding each assay tube was added 900 µL of the tissue suspension, 50 µL of 0.5 nM [^3H]8-OH-DPAT, 50 µL of new compounds or reference drug.
The incubation was followed by a rapid vacuum filtration through Whatman GF/B glass filters, and the filtrates were washed twice with 5mL cold buffer and transferred to scintillation vials. Scintillation fluid (3.0 mL) was added and the radioactivity bound was measured using a Beckman LS 6500 liquid scintillation counter.

The target in series [7] is T4, dopamine D2 receptor (Rattus norvegicus, UniProt P61169).
T4 construct: Rat striatum was homogenized in 20 volumes of ice-cold 50 mM Tris-HCl buffer; from tissue; host or cells: rat striatum
In words: D2 dopaminergic binding assay ([3H]spiperone, rat striatum). As to conditions: read-out: Ki±SEM, D2. The protocol:
as §1, §2, §3, §4
Rat striatum was homogenized in 20 volumes of ice-cold 50 mM Tris-HCl buffer (pH 7.7) using an ULTRA TURAX homogeniser, and centrifuged twice for 10 min at 48,000 g with resuspension of the pellet in fresh buffer. The final pellet was resuspended in 50 mM ice-cold Tris-HCl containing 120 mM NaCl, 5 mM KCl, 2 mM CaCl2, 1 mM MgCl2, 0.1% ascorbic acid and 5 µM pargyline.
Total binding each assay tube was added 900 µL of the tissue suspension, 50 µL of 0.5 nM [^3H]spiperone (16.2 Ci/mmol; Perkin Elmer Life Sciences, Boston, MA, USA), 50 µL Tris-HCl buffer containing 120 mM NaCl, 5 mM KCl, 2 mM CaCl2, 1 mM MgCl2, 0.1% ascorbic acid and 5 µM pargyline.
Non-specific binding each assay tube was added 900 µL of the tissue suspension, 50 µL of 0.5 nM [^3H]spiperone, 50 µL of 10 µM (+)-butaclamol.
Specific binding each assay tube was added 900 µL of the tissue suspension, 50 µL of 0.5 nM [^3H]spiperone, 50 µL of new compounds or reference drug.
as §5

For series [8], the target named is T5, dopamine D3 receptor (Rattus norvegicus, UniProt P19020).
T5 construct: Rat olfactory tubercle was homogenized in 20 volumes of ice-cold 50 mM Hepes Na; from tissue; host or cells: rat olfactory tubercle
Kind of series: D3 dopaminergic binding assay ([3H]spiperone, rat olfactory tubercle). To be noted: mean of three experiments, read-out: Ki±SEM, D3. The protocol:
as §1, §2, §3, §4, §5

In series [9] the target is T6, serotonin 5-HT2C receptor (Rattus norvegicus, UniProt P08909).
T6 construct: Rat cerebral cortex was homogenized in 20 volumes of ice-cold Tris-HCl buffer; from tissue; host or cells: rat brain (cerebral) cortex
T6 sequence (P08909 33-460): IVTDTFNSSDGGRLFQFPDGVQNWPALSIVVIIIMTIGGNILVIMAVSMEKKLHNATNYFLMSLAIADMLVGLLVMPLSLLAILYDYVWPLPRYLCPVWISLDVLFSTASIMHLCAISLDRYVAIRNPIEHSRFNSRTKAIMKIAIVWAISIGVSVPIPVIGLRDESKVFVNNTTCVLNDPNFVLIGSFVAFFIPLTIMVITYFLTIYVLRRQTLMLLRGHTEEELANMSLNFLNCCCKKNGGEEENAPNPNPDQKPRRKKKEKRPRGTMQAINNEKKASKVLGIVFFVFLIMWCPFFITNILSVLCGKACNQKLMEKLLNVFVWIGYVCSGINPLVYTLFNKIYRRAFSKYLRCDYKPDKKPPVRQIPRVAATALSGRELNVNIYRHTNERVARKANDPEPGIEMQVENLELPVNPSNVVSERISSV
Kind of series: 5-HT2C binding assay ([3H]mesulergine, rat brain cortex). As to conditions: mean of three experiments, read-out: Ki±SEM, 5HT2C. The protocol:
as §1
Total binding was determined in the absence of no-specific binding and compounds. Specific binding was determined in the presence of compounds. Non-specific binding was determined as the difference between total and specific binding. […]
Ki values were calculated based on the Cheng and Prussoff equation: Ki = IC50/(1+C/Kd) where C represents the concentration of the hot ligand used and Kd its receptor dissociation constant were calculated for each labeled ligand. […]
The resulting pellet was resuspended in the same quantity of the buffer centrifuged for 20 min. […]
as §5

[10] abbreviates: mice, 95% confidence limits in parentheses.

T4 sequence (P61169 whole entry): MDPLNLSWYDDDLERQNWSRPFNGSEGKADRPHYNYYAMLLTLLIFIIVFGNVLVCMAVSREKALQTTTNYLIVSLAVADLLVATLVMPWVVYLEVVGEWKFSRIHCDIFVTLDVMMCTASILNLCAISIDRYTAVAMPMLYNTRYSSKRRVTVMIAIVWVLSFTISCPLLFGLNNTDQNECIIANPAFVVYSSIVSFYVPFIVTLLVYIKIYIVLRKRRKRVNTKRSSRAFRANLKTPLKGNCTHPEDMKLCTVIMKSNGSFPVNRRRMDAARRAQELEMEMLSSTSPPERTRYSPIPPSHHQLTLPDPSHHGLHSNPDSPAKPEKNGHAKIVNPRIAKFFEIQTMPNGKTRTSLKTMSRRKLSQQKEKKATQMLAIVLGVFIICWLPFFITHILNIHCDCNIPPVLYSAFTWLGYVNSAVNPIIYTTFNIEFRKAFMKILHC
T1 sequence (P14842 whole entry): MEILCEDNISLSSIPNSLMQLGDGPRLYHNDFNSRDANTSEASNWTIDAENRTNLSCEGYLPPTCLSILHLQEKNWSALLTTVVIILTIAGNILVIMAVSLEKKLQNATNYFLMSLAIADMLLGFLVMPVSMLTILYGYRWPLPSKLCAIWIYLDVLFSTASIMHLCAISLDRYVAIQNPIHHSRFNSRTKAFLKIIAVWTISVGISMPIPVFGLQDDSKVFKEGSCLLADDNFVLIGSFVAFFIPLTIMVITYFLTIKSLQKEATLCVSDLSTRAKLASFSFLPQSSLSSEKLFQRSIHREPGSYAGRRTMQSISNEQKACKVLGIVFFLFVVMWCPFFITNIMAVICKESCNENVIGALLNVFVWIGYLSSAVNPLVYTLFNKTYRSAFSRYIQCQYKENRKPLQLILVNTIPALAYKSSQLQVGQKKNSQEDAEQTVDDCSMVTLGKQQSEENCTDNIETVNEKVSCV
T2 sequence (P31389 whole entry): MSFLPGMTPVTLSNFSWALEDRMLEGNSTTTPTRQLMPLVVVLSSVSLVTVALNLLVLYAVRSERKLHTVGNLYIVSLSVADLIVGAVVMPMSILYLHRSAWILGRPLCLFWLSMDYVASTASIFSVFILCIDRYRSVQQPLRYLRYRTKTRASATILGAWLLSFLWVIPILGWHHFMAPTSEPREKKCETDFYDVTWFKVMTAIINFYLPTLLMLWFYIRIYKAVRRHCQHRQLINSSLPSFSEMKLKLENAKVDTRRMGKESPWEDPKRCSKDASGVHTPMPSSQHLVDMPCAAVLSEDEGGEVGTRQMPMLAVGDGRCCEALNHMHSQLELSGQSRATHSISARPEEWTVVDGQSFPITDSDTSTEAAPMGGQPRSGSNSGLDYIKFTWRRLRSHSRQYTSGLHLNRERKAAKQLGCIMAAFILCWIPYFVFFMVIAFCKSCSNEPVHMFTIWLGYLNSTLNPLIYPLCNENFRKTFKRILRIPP
T5 sequence (P19020 whole entry): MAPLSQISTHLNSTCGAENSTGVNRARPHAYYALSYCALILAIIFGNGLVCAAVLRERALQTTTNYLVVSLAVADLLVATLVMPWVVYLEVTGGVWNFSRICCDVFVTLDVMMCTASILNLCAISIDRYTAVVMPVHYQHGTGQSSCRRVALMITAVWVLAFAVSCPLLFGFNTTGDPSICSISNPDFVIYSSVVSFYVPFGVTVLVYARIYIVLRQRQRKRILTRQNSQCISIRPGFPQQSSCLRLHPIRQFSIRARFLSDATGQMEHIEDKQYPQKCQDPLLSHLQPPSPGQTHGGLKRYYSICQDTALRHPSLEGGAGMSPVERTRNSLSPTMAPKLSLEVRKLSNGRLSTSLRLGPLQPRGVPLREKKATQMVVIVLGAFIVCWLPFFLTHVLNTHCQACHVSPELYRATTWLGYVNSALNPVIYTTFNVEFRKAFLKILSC

`O=C(CCCN1CCC(O)(c2ccc(Cl)cc2)CC1)c1ccc(F)cc1` [haloperidol]: the ED50 was 0.19 mg/kg in series [1], 0.09 mg/kg in [2] (setting [10]) and 0.22 mg/kg in series [3].

Turning to `COc1ccc(-c2nnc(SCCCN3CCC(c4noc5cc(F)ccc45)CC3)o2)cc1` [Compound 14, 2-(3-(4-(6-fluorobenzo[d]isoxazol-3-yl)piperidin-1-yl)propylthio)-5-(4-methoxyphenyl)-1,3,4-oxadiazole], the inhibitory constant (Ki) came out at 0.22 ± 0.02 nM in [4]; 13.2 ± 3.4 nM in [5]; 6.8 ± 0.7 nM in series [6]; 14.8 ± 1.8 nM in series [7]; 219 ± 35.2 nM in [8].

As to `Cc1nc2n(c(=O)c1CCN1CCC(c3noc4cc(F)ccc34)CC1)CCCC2` [risperidone], the median effective dose (ED50) in [2] stood at 0.02 mg/kg.

As for `CN1CCN(C2=Nc3cc(Cl)ccc3Nc3ccccc32)CC1` [clozapine], the values for the ED50 in series [1], in series [2] (setting [10]) and in [3] were 5.06 mg/kg, 7.99 mg/kg and 92.7 mg/kg, respectively.

As to `Fc1ccc2c(C3CCN(CCCSc4nnc(-c5ccc(Cl)cc5)o4)CC3)noc2c1` [Compound 16, 2-(3-(4-(6-fluorobenzo[d]isoxazol-3-yl)piperidin-1-yl)propylthio)-5-(4-chlorophenyl)-1,3,4-oxadiazole], the inhibitory constant (Ki) in [4] ([3H]ketanserin, rat brain cortex, mean of three experiments, >10000 marked b: Ki not calculated, inhibition at 10 µM too low) is 6.6 ± 0.8 nM; in series [5] ([3H]pyrilamine, guinea pig cerebellum, mean of three experiments, >10000 marked b: Ki not calculated, inhibition at 10 µM too low), 18.9 ± 2.1 nM; in series [9] it was 502 ± 56.2 nM; in series [6] ([3H]8-OH-DPAT, rat brain cortex, mean of three experiments, >10000 marked b: Ki not calculated, inhibition at 10 µM too low), 10.5 ± 1.2 nM; in series [7] ([3H]spiperone, rat striatum, mean of three experiments, >10000 marked b: Ki not calculated, inhibition at 10 µM too low), 18.3 ± 1.6 nM; in series [8] it was 15.5 ± 1.9 nM.

`FC(F)(F)c1cccc(N2CCN(CCCSc3nnc(-c4ccccc4)o3)CC2)c1` [Compound 10, 2-((3-(4-(3-(trifluoromethyl)phenyl)piperazin-1-yl)propyl)thio)-5-phenyl-1,3,4-oxadiazole] yielded a melting point of 68 to 69 °C. Moreover, in [4], the inhibition constant (Ki) was above 10000 nM. Further, in series [6], the inhibition constant Ki is above 10000 nM. Also, the inhibition constant Ki in [7] is above 10000 nM.

Turning to `Fc1ccc2c(C3CCN(CCCSc4nnc(-c5ccccc5)o4)CC3)noc2c1` [Compound 12, 2-(3-(4-(6-fluorobenzo[d]isoxazol-3-yl)piperidin-1-yl)propylthio)-5-phenyl-1,3,4-oxadiazole], the melting point fell in the range of 106 to 107 °C. Also, the Ki in series [4] worked out at 11.3 ± 1.2 nM. The Ki in series [6] is 18.9 ± 1.6 nM. Besides, the inhibition constant Ki in series [7] came to 2970 ± 381 nM.

Usually ED50 stands for the dose that gives a 50% effect, or the effect in half of the subjects. Usually Ki stands for a measure of affinity in units of concentration, obtained from inhibition or displacement. The term melting point denotes the temperature of the solid-liquid transition.
